Data reported in patent US12031897B2, “Target-locking single-molecule nanoscopy” (Memorial Sloan Kettering Cancer Center, priority 2019, dated 2024).
“Also recorded” adds a separate entry of the source.

What was measured:
[1] = target: T1, Brd4 foci at the Nanog locus (Mus musculus, UniProt Q9ESU6); assay: Brd4 cluster signal at Nanog vs. [JQ1]; type: cell-based; conditions: mESCs
T1 construct: integrating a SNAP-tag at the N-terminus of the endogenous Brd4; endogenous in cells; host or cells: mouse ESCs NMG, NMG SNAP-Brd4 clone 7 (CRISPR knock-in, homozygous)
Description: It is discovered that Pol II, Sox2 and Brd4 form foci at Nanog transcription sites, with nanoscale organization akin to Pou5f1—colocalization of Pol II with 3′UTR-tagged nascent RNA and resolvable separation of enhancer-associated regulatory factors (FIGS. 9A-9D).
(§1) For real-time confocal and STED imaging, example implementations may program the wave generator to scan 2 μm×2 μm or 1 μm×1 μm xy areas in 0.8 sec or 0.2 sec respectively. 3D scanning was performed (via, e.g., detection system 150) by acquiring 5 xy scans while moving the stage by 0.5 μm in z between scans. TTL pulses corresponding to single-photon events from the APDs, together with the trigger pulses from the wave generator were detected using a field-programmable gate array (FPGA) data acquisition system (National Instruments, PCIe-7852R).
(§2) Before imaging, cells were seeded onto 8-chamber coverglass (LabTek, 155411) coated with 5 μg/ml laminin (BioLamina LN511), in −2i media (OMG) or +2i media (NMG) and appropriate drugs. For SiR staining, cells were labeled with media containing 0.3 μM SiR-BG for 10 mins, at 37° C., followed by three washes with new media.
To generate OMG or NMG SNAP-Brd4 targeted cells, OMG-1 or NMG mESCs (1×106) were transfected with 10 μg SNAP-Brd4 donor vector and 0.6 μg espCas9-gRNA-Brd4 vector. […]

[2] = tested on: Cdk9 foci at the Pou5f1 locus; assay: Cdk9 cluster signal at Pou5f1 upon inhibition (live-cell confocal/STED scans); type: cell-based, mouse; conditions: for Cdk9 signal at Pou5f1 upon inhibition: 1 μM JQ1 (within 1 min) or 10 μM Flavopiridol
Source text: If rapid Pou5f1 shut-down reflects significant Cdk9 portion being recruited through Brd4-acetylated histone recognition, both Brd4 and Cdk9 clustering would dissipate upon JQ1 inhibition. […] Cdk9/Med22 focal accumulation appears to be stabilized through highly-specific molecular recognition-multiple Brd4 molecules binding to multiple acetylated targets throughout the heavily modified Pou5f1 enhancer region—rather than possibly less-selective physicochemical forces, e.g. driven by low-complexity protein domains and RNA.
as §1, §2
To generate OMG SNAP-Cdk9 targeted cells, OMG-1 mESCs (1×106) were transfected with 10 μg SNAP-Cdk9 donor vector and 0.6 μg espCas9-gRNA-Cdk9 vector. 10 days after transfection, the cells were trypsinized, labeled with SiR-BG and subjected to FACS, generating a first-round SiR-positive pool. This pool was then expanded, stained with SiR-BG and subjected to second FACS round and individual clones were picked and expanded.

[3] = tested on: Sox2 foci at the Pou5f1 locus; assay: Sox2 cluster signal at Pou5f1 upon inhibition (live-cell confocal/STED scans); type: cell-based, mouse; conditions: 1 μM JQ1 or 10 μM Flavopiridol
Source text: Contrary to Brd4, Med22 and Cdk9, Sox2 clustering persists through transcription inhibition by either JQ1 or FVP (FIG. 8D). The differential sensitivities between factors and modes of transcription inhibition unveil a hierarchy of molecular transactions that control Pou5f1 transcription: Sox2 binding occurs upstream of Cdk9/Med22/Brd4 recruitment and accumulation of all of 4 regulatory factors occurs upstream of Pol II release into productive elongation. […] For real-time confocal and STED imaging, example implementations may program the wave generator to scan 2 μm×2 μm or 1 μm×1 μm xy areas in 0.8 sec or 0.2 sec respectively. 3D scanning was performed (via, e.g., detection system 150) by acquiring 5 xy scans while moving the stage by 0.5 μm in z between scans. TTL pulses corresponding to single-photon events from the APDs, together with the trigger pulses from the wave generator were detected using a field-programmable gate array (FPGA) data acquisition system (National Instruments, PCIe-7852R). Before imaging, cells were seeded onto 8-chamber coverglass (LabTek, 155411) coated with 5 μg/ml laminin (BioLamina LN511), in -2i media (OMG) or +2i media (NMG) and appropriate drugs. For SiR staining, cells were labeled with media containing 0.3 μM SiR-BG for 10 mins, at 37° C., followed by three washes with new media. Targeted integration of SNAP-tag in the endogenous Sox2, Cdk9, Brd4 and Med22 genes. To generate OMG or NMG SNAP-Sox2 targeted cells, OMG-1 or NMG mESCs (1×106) were transfected with 10 μg SNAP-Sox2 donor vector and 0.6 μg […] vector. 10 days after transfection, the cells were trypsinized, labeled with 0.3 μM SiR-BG for 10 mins, rinsed three times with new media, followed by immediate fluorescence-activated cell sorting (FACS). All the SiR-positive cells were collected, expanded for 2 weeks, trypsinized, labeled with SiR-BG and sorted again. Almost 100% SNAP positive pools were obtained from the second round of sorting and individual clones were picked and expanded. Homozygous clones (dubbed “OMG SNAP-Sox2 clone 8” and NMG SNAP-Sox2 clone 3'' respectively) with both Sox2 alleles correctly targeted with SNAP-tag integrations and that show SiR nuclear staining were selected for all further experiments.

Structure (SMILES) | Hill curve n, relative Brd4 signal at Nanog vs. [JQ1] [1] | Cdk9 signal at Pou5f1 upon inhibition [2] | Hill equation n, relative Cdk9 signal vs. [JQ1] ([2]; Pou5f1) | Sox2 clustering at Pou5f1 upon transcription inhibition [3]
Cc1sc2c(c1C)C(c1ccc(Cl)cc1)=N[C@@H](CC(=O)OC(C)(C)C)c1nnc(C)n1-2 [JQ1] | 1.0 | drop sharply; also recorded: drop close to noise-floor | 0.8±0.1 | persists
CN1CC[C@H](c2c(O)cc(O)c3c(=O)cc(-c4ccccc4Cl)oc23)[C@H](O)C1 [flavopiridol] |  | not lost |  | persists
